Laboratory results as given in US5486624A (Pacific Corporation, priority 1994, dated 1996).

What was measured:
human skin = assay: human body patch test (skin safety); assay type: in vivo; conditions: for number of positive subjects/the number of total subjects: cream with 0.2 wt. % compound, 20 μl plaster, 30 volunteers; for safety to human skin (in words): overall conclusion
Method: In order to examine the safety of the compounds of Examples 1 and 2, a human body patch test was carried out as follows:
The brachium of thirty(30) healthy volunteers (15 females and 15 males) was thoroughly washed with 70% ethanol and applied with a plaster containing 20 μl of a conventional creamy preparation incorporating 0.2 wt. % of one of the compounds of Examples 1 and 2. The plaster was thoroughly bonded to the brachium using an adhesive tape. 48 hours later, the tape and chamber were removed, and the adherent site of the arm was wiped with a gauze to remove any remaining preparation. […] 48 hours later, the site was examined again.
The results are shown in terms of the number of positive subjects/the number of total subjects.

Tyrosinase [1] = assay: Tyrosinase-inhibiting activity; assay type: biochemical, mushroom; conditions: for IC50: mushroom tyrosinase, tyrosine, pH 6.8, 37° C., 10 minutes, 475 nm, read-out: IC50 (concentration of test compound which inhibits tyrosinase by 50%); for tyrosinase inhibition activity, fold higher than that of kojic acid: relative to kojic acid, in terms of IC50
Method: Tyrosinase, which was extracted from mushroom, was purchased from SIGMA. […] Ethanol and water were used to dilute the test compounds. As a control, 0.9 ml of a 1:1 mixture of ethanol and water was used. […] The test tube was quickly cooled in an ice water bath to stop the reaction, and absorbance was measured at 475 nm. […] IC50, i.e., the concentration of test compound which inhibits tyrosinase by 50% was calculated by serial dilution for each test compound.

[2] = DPPH (diphenylpicrylhydrazyl) radical-scavenging test; conditions: for IC50: DPPH 100 μM in ethanol, 37° C., 30 minutes, 515 nm, read-out: IC50 (concentration of test compound which scavenges the radical DPPH by 50%)
Method: Harmful radical-scavenging activities of the compounds of Examples 1 and 2 were compared with those of conventional anti-oxidants using a DPPH (diphenylpicrylhydrazyl) radical-scavenging test as follows:
DPPH was dissolved into ethanol to a concentration of 100 μM. A series of dilutions of compounds of Examples 1 and 2, vitamin C, vitamin E or hydroquinone were prepared. Ethanol and water were used to dilute the test compounds. As a control, a 1:1 mixture of ethanol and water was used. The series of dilutions of each test compound were mixed with 1,900 μl of DPPH solution and the dilution solvent was added to 2.0 ml. The resulting mixture was reacted in an incubator at 37° C. for 30 minutes. Absorbance was measured at 515 nm. The radical-scavenging activities of the compounds of Examples 1 and 2 and conventional anti-oxidants were calculated by the following equation: [formula]
IC50, i.e., the concentration of test compound which scavenge the radical, DPPH by 50% was calculated by the serial dilution method for each test compound.

tyrosinase [3] = conditions: prior art statement; cited from earlier work

Compound | number of positive subjects/the number of total subjects (human skin; 48 hours later) | number of positive subjects/the number of total subjects (human skin; 96 hours later) | skin response in patch test (in words) (human skin; after 48 hours) | skin response in patch test (in words) (human skin; after 96 hours) | safety to human skin (in words) (human skin) | IC50 (Tyrosinase [1]) [µM] | tyrosinase inhibition activity, fold higher than that of kojic acid (Tyrosinase [1]) [fold] | radical-scavenging activity (in words) [2] | IC50 [2] [µM] | inhibition of tyrosinase (in words) (tyrosinase [3])
O=C(C=Cc1ccc(O)c(O)c1)OCc1cc(=O)c(O)co1 [Example 1, 2-(3,4-dihydroxycinnamoyl)oxymethyl-5-hydroxy-4H-pyran-4-one] | 1/30 | 0/30 | weak positive response | disappeared | safe to human skin | 4 | 20 | strong activity as a radical scavenger | 12.3 | 
COc1cc(C=CC(=O)OCc2cc(=O)c(O)co2)ccc1O [Example 2, 2-(4-hydroxy-3-methoxycinnamoyl) oxymethyl-5-hydroxy-4H-pyran-4-one] | 1/30 | 0/30 | weak positive response | disappeared | safe to human skin | 4 | 20 |  | 70 | 
Oc1ccc(O)cc1 [Hydroquinone, hydroquinone, reference compound] |  |  |  |  |  |  |  |  | 25.4 | 
O=c1cc(CO)occ1O [Kojic acid] |  |  |  |  |  |  |  |  |  | strongly inhibits the action of tyrosinase
O=C1O[C@H]([C@@H](O)CO)C(O)=C1O [Vitamin C, reference compound] |  |  |  |  |  |  |  |  | 29.2 | 
tocopherol [Vitamin E, reference compound] |  |  |  |  |  |  |  |  | 34.8 | 
